Laboratory results published in US9255093B2, “Polycyclic HERG activators” (NOVARTIS AG, priority 2014, dated 2016).
Marks after values point to notes of the source that are not given here.

Each compound was assayed against hERG (human ether-a-go-go-related gene) potassium channel (Homo sapiens, UniProt Q12809) (assay: QPatch automated patch-clamp hERG activator 4-concentration EC50 assay). Details: increase of hERG tail current amplitude at 7 second (TL7); 3.3 uM (footnote *); hERG stably expressed in CHO cells.
Sequence of hERG (human ether-a-go-go-related gene) potassium channel (Q12809 whole entry): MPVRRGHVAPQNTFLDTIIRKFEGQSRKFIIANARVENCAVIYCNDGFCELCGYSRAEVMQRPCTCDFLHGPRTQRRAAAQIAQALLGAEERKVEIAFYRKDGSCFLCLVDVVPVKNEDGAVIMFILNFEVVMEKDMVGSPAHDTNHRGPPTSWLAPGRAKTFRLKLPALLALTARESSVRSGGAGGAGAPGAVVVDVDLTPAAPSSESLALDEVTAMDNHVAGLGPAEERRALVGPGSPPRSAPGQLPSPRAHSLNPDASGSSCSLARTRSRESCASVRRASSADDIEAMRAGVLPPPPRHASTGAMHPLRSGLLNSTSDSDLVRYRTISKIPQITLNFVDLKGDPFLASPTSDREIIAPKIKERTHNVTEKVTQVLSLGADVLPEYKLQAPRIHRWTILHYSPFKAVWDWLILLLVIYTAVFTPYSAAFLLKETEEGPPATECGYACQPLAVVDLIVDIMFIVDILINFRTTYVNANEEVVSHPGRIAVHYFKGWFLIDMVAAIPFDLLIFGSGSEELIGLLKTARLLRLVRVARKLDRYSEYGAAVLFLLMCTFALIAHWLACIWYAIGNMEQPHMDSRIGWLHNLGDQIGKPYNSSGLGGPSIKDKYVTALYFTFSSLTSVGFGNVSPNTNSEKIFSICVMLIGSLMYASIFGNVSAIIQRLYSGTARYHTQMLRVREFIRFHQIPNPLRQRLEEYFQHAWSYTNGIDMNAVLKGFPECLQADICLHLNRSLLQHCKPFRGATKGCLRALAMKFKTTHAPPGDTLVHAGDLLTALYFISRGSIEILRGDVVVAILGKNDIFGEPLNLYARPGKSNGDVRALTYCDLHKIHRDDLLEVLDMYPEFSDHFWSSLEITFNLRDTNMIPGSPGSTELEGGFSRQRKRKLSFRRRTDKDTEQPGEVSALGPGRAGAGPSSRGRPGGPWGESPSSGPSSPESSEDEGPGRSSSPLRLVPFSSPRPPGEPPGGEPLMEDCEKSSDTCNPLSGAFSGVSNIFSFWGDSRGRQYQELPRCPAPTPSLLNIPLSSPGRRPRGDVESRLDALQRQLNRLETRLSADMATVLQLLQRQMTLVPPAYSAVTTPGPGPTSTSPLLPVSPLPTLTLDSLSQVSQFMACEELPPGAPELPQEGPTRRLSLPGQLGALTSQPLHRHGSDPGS
From the text: A patch-clamp assay on the QPatch© automated patch clamp system was employed to assesses whether compounds functionally enhance the cardiac delayed rectifier hERG (human ether-a-go-go-related gene) potassium channel. The assay measures electric the current passing through hERG channels that are heterologously expressed in a stable Chinese hamster ovary (CHO) cell line. Channels are opened by a hERG-specific voltage protocol and the compound effect is directly characterized by the activation of the hERG current. EC50 values are obtained from fitting 4-concentration dose response curves (1.1, 3.3, 10 & 30 uM) in triplicates at 4 different sections of the voltage protocol (steady state current amplitude at +10 mV, at +30 mV, peak tail current amplitude and tail current amplitude at 7 second).

Compound | % change@TL7 (*@3.3 uM)
COc1c(F)cc(NCc2ccc3cc(-c4nn[nH]n4)oc3c2)cc1Br [Example 1] | 166* %
CCOc1c(F)cc(NCc2ccc3cc(-c4nn[nH]n4)oc3c2)cc1Br [Example 2] | 126* %

Same assay, conditions: increase of hERG tail current amplitude at 7 second (TL7); 10 uM; hERG stably expressed in CHO cells

Compound | % change@TL7@10 uM [%]
CCCc1ccc(NCc2ccc3cc(-c4nnn[nH]4)oc3c2)cc1Br [Example 42] | 159
FC(F)(F)c1ccc(NCc2ccc3cc(-c4nn[nH]n4)oc3c2)cc1C(F)(F)F [Example 52] | 95
CCCc1ccc(NCc2cc3oc(-c4nnn[nH]4)cc3cc2Cl)cc1C(F)(F)F [Example 31] | 218
Clc1ccc(NCc2ccc3cc(-c4nn[nH]n4)oc3c2)cc1 [Example 33] | 192
O=C(O)c1cc2ccc(CNc3ccc(C(=O)C(F)(F)F)cc3)cc2o1 [Example 103] | 112
Fc1cc2oc(-c3nnn[nH]3)cc2cc1CNc1ccc(OCC(F)(F)F)c(C(F)(F)F)c1 [Example 127] | 268
FC(F)(F)Oc1cc(NCc2ccc3cc(-c4nn[nH]n4)oc3c2)ccc1Br [Example 48] | 123
CSc1cccc(NCc2ccc3cc(-c4nn[nH]n4)oc3c2)c1 [Example 28] | 260
CCOc1c(Cl)cc(NCc2ccc3c(C(F)(F)F)c(-c4nnn[nH]4)oc3c2)cc1Cl [Example 49] | 106
Cc1cc(NCc2ccc3cc(-c4nn[nH]n4)oc3c2)ccc1OC(F)(F)F [Example 21] | 333
O=C(O)c1cc2ccc(CNc3ccc(SC(F)(F)F)c(Cl)c3)cc2o1 [Example 87] | 326
COc1cc2cc(-c3nnn[nH]3)oc2cc1CNc1ccc(OCC(F)(F)F)c(C(F)(F)F)c1 [Example 153] | 381
Fc1c(CNc2ccc(OC(F)(F)F)c(Br)c2)ccc2oc(-c3nnn[nH]3)cc12 [Example 140] | 290
CCOc1ccc(NCc2cc3oc(-c4nnn[nH]4)cc3cc2F)cc1Cl [Example 211] | 248
COc1cc(NCc2ccc3cc(-c4nn[nH]n4)oc3c2)cc(OC)c1OC [Example 62] | 43
Fc1cc(NCc2ccc3cc(-c4nn[nH]n4)oc3c2)cc(Br)c1F [Example 35] | 180
CCOc1ccc(NCc2cc3oc(-c4nnn[nH]4)cc3cc2Cl)cc1C(F)(F)F [Example 10] | 285
Cc1cc(NCc2ccc3cc(C(=O)O)oc3c2)ccc1OC(F)(F)F [Example 102] | 153
FC(F)COc1ccc(NCc2cc3oc(-c4nnn[nH]4)cc3cc2Cl)cc1C(F)(F)F [Example 157] | 350
CCCc1ccc(NCc2ccc3oc(-c4nnn[nH]4)cc3c2)cc1C(F)(F)F [Example 66] | 261
FC(F)(F)c1ccc(NCc2cc3oc(-c4nnn[nH]4)cc3cc2Cl)cc1C(F)(F)F [Example 14] | 196
Fc1c(CNc2ccc(OCC(F)(F)F)c(C(F)(F)F)c2)ccc2oc(-c3nnn[nH]3)cc12 [Example 142] | 188
FC(F)(F)Oc1ccc(NCc2ccc3c(C(F)(F)F)c(-c4nnn[nH]4)oc3c2)cc1Cl [Example 54] | 94
FC1(F)Oc2ccc(NCc3ccc4cc(-c5nn[nH]n5)oc4c3)cc2C(F)(F)O1 [Example 219] | 71
CCCc1ccc(NCc2cc3oc(-c4nnn[nH]4)cc3cc2F)cc1F [Example 190] | 167
CC(C)c1ccc(NCc2cc3oc(-c4nnn[nH]4)cc3cc2Cl)cc1C(F)(F)F [Example 207] | 297

Compound | % change@TL7@10 uM [%]
O=C(O)c1cc2ccc(CNc3cc(Cl)nc(Cl)c3)cc2o1 [Example 119] | 22
Fc1c(CNc2ccc(OCC(F)(F)F)c(C(F)(F)F)c2)ccc2cc(-c3nnn[nH]3)oc12 [Example 154] | 325
O=C(O)c1cc2cc(F)c(CNc3ccc(SC(F)(F)F)c(Cl)c3)cc2o1 [Example 228] | 140
CCCc1ccc(NCc2ccc3oc(-c4nnn[nH]4)c(C)c3c2)cc1C(F)(F)F [Example 82] | 39
Cc1c(-c2nnn[nH]2)oc2cc(CNc3ccc(OC(F)(F)F)c(Br)c3)ccc12 [Example 53] | 95
Fc1cc2cc(-c3nnn[nH]3)oc2cc1CNc1ccc(C(F)(F)F)c(F)c1 [Example 203] | 136
CCCc1ccc(NCc2cc3oc(-c4nnn[nH]4)cc3cc2Cl)cc1Br [Example 34] | 191
Brc1cccc(NCc2ccc3cc(-c4nn[nH]n4)oc3c2)c1 [Example 59] | 61
CCCc1cc(NCc2ccc3oc(C(=O)O)cc3c2)ccc1C(F)(F)F [Example 125] | 138
O=C(O)c1cc2cc(CNc3ccc(Cl)c(Cl)c3)ccc2o1 [Example 123] | 183
O=C(O)c1cc2ccc(CNc3ccc4c(c3)OC(F)(F)C(F)(F)O4)cc2o1 [Example 94] | 194
Cc1cc2cc(NCc3ccc4cc(-c5nn[nH]n5)oc4c3)cc(Cl)c2o1 [Example 194] | 205
CCCc1ccc(NCc2ccc3oc(-c4nnn[nH]4)cc3c2)cc1OC(F)(F)F [Example 76] | 120
FC(F)(F)c1ccc(NCc2cc3oc(-c4nnn[nH]4)cc3cc2Cl)cc1Cl [Example 198] | 187
CCCc1ccc(NCc2cc3oc(-c4nnn[nH]4)cc3cc2Cl)cc1Cl [Example 12] | 85
O=C(O)c1cc2cc(F)c(CNc3ccc(OCC(F)(F)F)c(C(F)(F)F)c3)cc2o1 [Example 231] | 239
O=C(O)c1cc2ccc(CNc3ccc(OC(F)(F)F)c(Br)c3)cc2o1 [Example 90] | 247
Fc1cc2cc(-c3nnn[nH]3)oc2cc1CNc1ccc(OCC(F)F)c(C(F)(F)F)c1 [Example 162] | 372
Fc1cc2cc(-c3nnn[nH]3)oc2cc1CNc1ccc(F)c(C(F)(F)F)c1 [Example 176] | 120
O=C(O)c1cc2ccc(CNc3ccc4c(c3)OC(F)(F)O4)cc2o1 [Example 89] | 270
CCc1ccc(NCc2cc3oc(-c4nnn[nH]4)cc3cc2F)cc1Br [Example 181] | 322
CCc1ccc(NCc2ccc3cc(C(=O)O)oc3c2)cc1C(F)(F)F [Example 100] | 156
Fc1cc(NCc2ccc3cc(-c4nn[nH]n4)oc3c2)ccc1OC(F)(F)F [Example 43] | 148
FC1(F)Oc2ccc(NCc3ccc4oc(-c5nnn[nH]5)cc4c3)cc2O1 [Example 67] | 247
CSc1ccc(NCc2ccc3cc(-c4nn[nH]n4)oc3c2)cc1C(F)(F)F [Example 26] | 267
O=C(O)c1cc2cc(Cl)c(CNc3ccc(OC(F)F)c(C(F)(F)F)c3)cc2o1 [Example 223] | 176

Compound | % change@TL7@10 uM [%]
CCCc1ccc(NCc2ccc3cc(C(=O)O)oc3c2)cc1C(F)(F)F [Example 95] | 193
CCCc1cc(NCc2ccc3oc(C(=O)O)cc3c2)ccc1Cl [Example 126] | 64
O=C(O)c1cc2ccc(CNc3ccc(OCC(F)(F)F)c(Cl)c3)cc2o1 [Example 108] | 82
FC(F)(F)c1ccc(NCc2cc3cc(-c4nnn[nH]4)oc3cc2Cl)cc1Cl [Example 138] | 196
FC(F)(F)Oc1ccc(NCc2ccc3c(C(F)(F)F)c(-c4nnn[nH]4)oc3c2)cc1Br [Example 47] | 131
CC(C)Oc1ccc(NCc2cc3oc(-c4nnn[nH]4)cc3cc2Br)cc1C(F)(F)F [Example 173] | 278
O=C(O)c1cc2ccc(CNc3cc(F)c(F)c(Br)c3)cc2o1 [Example 106] | 90
Fc1ccc(NCc2ccc3oc(-c4nnn[nH]4)cc3c2)cc1OC(F)(F)F [Example 72] | 176
CCCc1c(C)cc(NCc2ccc3oc(-c4nnn[nH]4)cc3c2)cc1Cl [Example 69] | 221
CCCc1ccc(NCc2ccc3c(C)c(-c4nnn[nH]4)oc3c2)cc1C(F)(F)F [Example 51] | 99
Cc1c(-c2nnn[nH]2)oc2ccc(CNc3ccc(SC(F)(F)F)c(Cl)c3)cc12 [Example 70] | 200
Fc1c(CNc2cc(C(F)(F)F)c(Br)c(C(F)(F)F)c2)ccc2cc(-c3nnn[nH]3)oc12 [Example 151] | 308
Cc1cc(NCc2cc3oc(-c4nnn[nH]4)cc3cc2Cl)cc(C(F)(F)F)c1 [Example 213] | 144
Fc1c(Cl)cc(NCc2cc3oc(-c4nnn[nH]4)cc3cc2Cl)cc1C(F)(F)F [Example 201] | 225
FC(F)(F)COc1ccc(NCc2ccc3cc(-c4nn[nH]n4)oc3c2)cc1C(F)(F)F [Example 27] | 261
FC(F)Oc1ccc(NCc2cc3oc(-c4nnn[nH]4)cc3cc2Br)cc1C(F)(F)F [Example 156] | 356
FC(F)Oc1ccc(NCc2cc3cc(-c4nnn[nH]4)oc3cc2Cl)cc1C(F)(F)F [Example 134] | 217
O=C(O)c1cc2ccc(CNc3ccc(C(F)(F)F)c(C(F)(F)F)c3)cc2o1 [Example 101] | 156
O=C(O)c1cc2cc(F)c(CNc3ccc(OC(F)(F)F)c(Br)c3)cc2o1 [Example 227] | 188
Fc1cc(NCc2cc3oc(-c4nnn[nH]4)cc3cc2F)ccc1Cl [Example 214] | 138
CCOc1ccc(NCc2ccc3cc(-c4nnn[nH]4)oc3c2Cl)cc1C(F)(F)F [Example 206] | 160
CCCc1ccc(NC(C)c2ccc3oc(-c4nnn[nH]4)cc3c2)cc1C(F)(F)F (stereo not drawn) [Example 81] | 74
O=C(O)c1cc2ccc(CNc3ccc4c(c3)OCCO4)cc2o1 [Example 105] | 105
FC(F)(F)Oc1ccc(NCc2ccc3cc(-c4nn[nH]n4)oc3c2)cc1 [Example 63] | 34
